Data taken from patent US20050075398A1, “Neuroprotectin D1 protects against cellular apoptosis, stroke damage, alzheimer's disease and retinal diseases” (priority 2003, published 2005).

Key:
[1] = test system: myeloperoxidase immunoreactivity (PMN leukocytes); assay: Immunohistochemistry of myeloperoxidase after MCA-O; format: in vivo, mouse; settings: infusion 0.4 μg over 48 h; 1 h MCA-O, 48 h reperfusion
Experimental: Immunohistochemistry of myeloperoxidase to assess leukocyte infiltration. After MCA-O, mice were infused by Alzet mini-pumps with vehicle or 10,17S-docosatriene (NPD1). After 48 h, mice were anesthetized and killed by intracardial perfusion of ice-cold saline followed by 10% neutral buffered formalin. Brain tissues were allowed to equilibrate overnight in 4% buffered formalin, followed by 30% sucrose in 0.1 M PBS. Frozen sections were made at 10 μm thickness and mounted on glass slides. Sections were permeablized with 0.6% Triton X-100 for 10 min, washed in PBS, and blocked in 2% goat serum in PBS for 30 min. Incubation with myeloperoxidase/FITC-conjugated antibody (DAKO A/S, Denmark) was performed at 1:200 dilution for 2 h. Sections were washed in Tween-20 in PBS then mounted in Vectashield (Vector, Calif.). Images were recorded by deconvolution microscope (Intelligent Imaging Innovations, Denver, Colo.).
To determine whether 10,17S-docosatriene (NPD1) affected brain ischemia-reperfusion-induced PMN infiltration, either DHA or 10,17S-docosatriene (NPD1) was constantly infused into the third ventricle of a mouse brain during 48 h of reperfusion. […] The data shown represent averages± SD of the indicated number (n) of individual mice. Immunocytochemical changes in polymorphonuclear leukocytes were shown by a green fluorescence that indicated myeloperoxidase immunoreactivity. […]

[2] = test system: NF-κB-DNA binding activity; assay: EMSA of NF-κB in hippocampus after MCA-O; format: in vivo, mouse; settings: ipsilateral hippocampus; 1 h MCA-O, 2 h reperfusion; infused into third ventricle 3 h at 0.25 μl/h (NPD1 0.16 μg/ml)
Experimental: (§1) Electrophoretic mobility-shift assay (EMSA) of human AP1, HIF-1α, NF-κBp50/p65, and STAT-1α. Nuclear protein extracts (NPXTs) were prepared from one to three 3.5 cm-diameter wells of HN cells and quantitated. NPXTs (5 μg) derived from HN cells were incubated with[γ-^32P]-ATP (˜3000 Ci/mmol)-end-labeled AP1, HIF-1α, NF-κκBp50/p65, or STAT-1α consensus and mutant oligonucleotides in 5-μl volumes, reacted for 30 min on ice, analyzed on 5% or 10% acrylamide/90 mM Tris-borate pH 8.4, 1 mM EDTA (TBE) gels, dried onto 2-mm Whatman filter paper at 80° C. for 2 h, and phosphorimaged using a Typhoon Variable Mode Imager (Amersham Pharmacia Biotech, Piscataway, N.J. ).
(§2) FIGS. 7A, 7B, and 7C show mouse hippocampus after 1 h MCA-O was followed by 2 h reperfusion, where either vehicle, DHA, or 10,17S-docosatriene (NPD1) (0.16 μg/ml) was infused into the third ventricle for 3 h at 0.25 μl/h. […] NF-κB was increased over two fold in the ipsilateral hippocampus after MCA-O, and the infusion of either DHA or 10,17S-docosatriene (NPD1) inhibited ischemia-reperfusion-induced NF-κB activation by 28% and 48%, respectively (FIG. 7A).

STAT-1-DNA binding = assay: EMSA of STAT-1 in hippocampus after MCA-O; format: in vivo, mouse; settings: 1 h MCA-O, 2 h reperfusion, NPD1 0.16 μg/ml infused 3 h
Experimental: as §1, §2

Bcl-2 gene expression = assay: HGU133 GeneChip DNA array in HN cells: Bcl-2; format: cell-based, human; settings: Aβ42 25 μM, DHA 50 nM or NPD1 50 nM, 18 h, nsc = no significant change
Bax gene expression = assay: HGU133 GeneChip DNA array in HN cells: Bax; format: cell-based, human; settings: Aβ42 25 μM, DHA 50 nM or NPD1 50 nM, 18 h, nsc = no significant change
Text: Total RNA quality and abundance were profiled using RNA Nano LabChips (Caliper Technologies, Mountainview, Calif.; Agilent Technologies, Palo Alto, Calif.).
Biotinylated antisense cRNAs were synthesized from cDNA using the Superscript Choice System (Invitrogen) and Enzo Biorray High Yield RNA Transcript Labeling kits according to the manufacturer's protocols (Affymetrix) and as described in Colangelo, V., Schurr, J., Ball, M. J., Pelaez, R. P., Bazan, N. G., Lukiw, W. J. (2002) J. Neurosci. […] Probes were hybridized against HU133Av2 GeneChip DNA arrays that interrogate approximately 33,000 full-length mouse genes and expressed sequence tag (EST) clusters.
DNA arrays were scanned at 570 nm, and significant features were extracted using Data Mining Tool 3.0 (Affymetrix). Data analyses and graphic presentations were performed using Microarray Suite 5.0 (Affymetrix), GeneSpring 6.0 (Silicon Genetics, Redwood City, Calif.) and Adobe Photoshop 6.0 (Adobe Systems, San Jose, Calif.). Volcano plots were plotted representing total gene expression patterns as a function of fold-change as compared to expression patterns of age-matched controls as plotted against p, as calculated by an analysis of variance (ANOVA). […] Statistical significance was analyzed using a two-way factorial analysis of variance (p, ANOVA; Statistical Analysis System; SAS Institute, Cary, N.C. ).

COX-2 gene expression = assay: HGU133 GeneChip DNA array in HN cells: COX-2; format: cell-based, human; settings: Aβ42 25 μM, DHA 50 nM or NPD1 50 nM, 18 h, nsc = no significant change
ARPE-19 cells = assay: ELISA detection of mono- and oligonucleosomes; format: cell-based, human; settings: 50 nM
Experimental: Assessment of apoptosis by mono- and oligonucleosome analysis: Cells were homogenized in a lysis buffer and 20-μl aliquots were applied on streptavidin-coated 96-well plates. Cells were incubated for 2 h with 80 μl incubation buffer containing the monoclonal antibodies directed against DNA and histones for detection of mono- and oligonucleosomes (Roche Diagnostics Corporation Cat. # 1774425). After the unreacted antibodies were washed away, the immune complexes of DNA-histone-antibodies remain bound to the streptavidin-coated plates, where detection was attained by horseradish-peroxidase reaction.
DNA fragmentation was also detected by ELISA detection of mono- and oligonucleosomes in ARPE cells (Roche Diagnostics Corporation Cat. # 1774425). Cells were homogenized in a lysis buffer, and 20-μl aliquots were applied on streptavidin-coated 96-well plates. Cells were incubated for 2 h with 80 μl incubation buffer containing the monoclonal antibodies directed against DNA and histones for detection of mono- and oligonucleosomes. After the unreacted antibodies were washed away, the immune complexes of DNA-histone-antibodies remained bound to the streptavidin-coated plates, where detection is obtained through horseradish-peroxidase reaction. Quantitative analysis was performed in a Spectramax-250 (Molecular Devices) spectrophotometer.

CC/C=C\C[C@H](O)\C=C/C=C/C=C/[C@H](O)C/C=C\C/C=C\CCC(=O)O [NPD1, 10,17S-docosatriene]
green fluorescence (myeloperoxidase immunoreactivity), ipsilateral brain [1]: surprisingly large reduction
inhibition of ischemia-reperfusion-induced NF-κB activation [2]: 48%
effect on STAT-1-DNA binding (STAT-1-DNA binding): small effect
Bcl-2 gene expression, fold change over untreated controls (Bcl-2 gene expression): +3.3 fold
Bax gene expression, fold change over untreated controls (Bax gene expression): nsc
COX-2 gene expression, fold change over untreated controls (COX-2 gene expression): nsc
effect on TNFα/H2O2-induced accumulation of mono- and oligonucleosomes (ARPE-19 cells): inhibited
